In ChEMBL document CHEMBL4513148, “CO-ADD screening of Stellenbosch University (South Africa) compounds”:
≈ marks a conversion by molar mass, not a printed value.

Key:
[1] = system: HEK293; experiment: cells; assay type: functional; conditions: Homo sapiens, ATCC CRL1573, HEK293; ASSAY_TEST Inhibition of Cell Viability; detection method Resazurin; Fluorescence (ex560/em590); MEDIA DMEM with 10% FBS; plate type 384well; TC; CORNING #3712; time 18 hr
[2] = system: Cryptococcus neoformans
Description: Antifungal activity against Cryptococcus neoformans H99 ATCC 208821 (CO-ADD:FG_002); MIC in YNB media using NBS plates, by Resazurin OD(600-570)

[3] = system: Staphylococcus aureus; experiment: microbe, parasite or virus in culture; conditions: ATCC 43300, 18 h, ASSAY_TEST Inhibition of Bacterial Growth, detection method Absorption (OD600), MEDIA CAMHB, plate type 384well, NBS, CORNING #3640
Description: Antibacterial activity against Staphylococcus aureus MRSA ATCC 43300 (CO-ADD:GP_020); MIC in CAMBH media, using NBS plates, by OD(600)

[4] = system: Escherichia coli; experiment: microbe, parasite or virus in culture; conditions: ATCC 25922, 18 h, ASSAY_TEST Inhibition of Bacterial Growth, detection method Absorption (OD600), MEDIA CAMHB, plate type 384well, NBS, CORNING #3640
Description: Antibacterial activity against Escherichia coli ATCC 25922 (CO-ADD:GN_001); MIC in CAMBH media using NBS plates, by OD(600)

[5] = system: Klebsiella pneumoniae; experiment: microbe, parasite or virus in culture; conditions: ATCC 700603, 18 h, ASSAY_TEST Inhibition of Bacterial Growth, detection method Absorption (OD600), MEDIA CAMHB, plate type 384well, NBS, CORNING #3640
Description: Antibacterial activity against Klebsiella pneumoniae MDR ATCC 70063 (CO-ADD:GN_003); MIC in CAMBH media using NBS plates, by OD(600)

[6] = system: Pseudomonas aeruginosa; experiment: microbe, parasite or virus in culture; conditions: ATCC 27853, 18 h, ASSAY_TEST Inhibition of Bacterial Growth, detection method Absorption (OD600), MEDIA CAMHB, plate type 384well, NBS, CORNING #3640
Description: Antibacterial activity against Pseudomonas aeruginosa ATCC 27853 (CO-ADD:GN_042); MIC in CAMBH media using NBS plates, by OD(600)

[7] = system: Acinetobacter baumannii; experiment: microbe, parasite or virus in culture; conditions: ATCC 19606, 18 h, ASSAY_TEST Inhibition of Bacterial Growth, detection method Absorption (OD600), MEDIA CAMHB, plate type 384well, NBS, CORNING #3640
Description: Antibacterial activity against Acinetobacter baumannii ATCC 19606 (CO-ADD:GN_034); MIC in CAMBH media using NBS plates, by OD600

[8] = system: Candida albicans; experiment: microbe, parasite or virus in culture; conditions: ATCC 90028, ASSAY_TEST Inhibition of Fungal Growth, detection method Absorption (OD530), plate type 384well, NBS, CORNING #3640
Description: Antifungal activity against Candida albicans ATCC 90028 (CO-ADD:FG_001); MIC in YNB media using NBS plates, by OD630

In the case of `CCCCCCCNC(=O)CCNC(=O)[C@H](O)C(C)(C)CO`, the CC50 [1] is reported as > 32 mg/L, the MIC [2] is reported as > 32 mg/L and the MIC [3] is reported as 0.5 mg/L (≈ 1.58 µM). For the same compound, the MIC [4] was > 32 mg/L, the MIC [5] was > 32 mg/L and the MIC [6] was > 32 mg/L. The MIC [7] was > 32 mg/L and the MIC [8] was > 32 mg/L.

`CC(C)(CO)[C@@H](O)C(=O)NCCC(=O)NCCc1ccccc1` was tested, and the CC50 [1] was > 32 mg/L, the MIC [2] was > 32 mg/L and the MIC [3] was 32 mg/L (≈ 99.3 µM). The MIC [4] was > 32 mg/L, the MIC [5] was > 32 mg/L and the MIC [6] was > 32 mg/L. For the same compound, the MIC [7] was > 32 mg/L and the MIC [8] was > 32 mg/L.

`CCCCCCCNC(=O)/C=C/NC(=O)[C@H](O)C(C)(C)CO` was tested, and the CC50 [1] was > 32 mg/L, the MIC [2] was > 32 mg/L and the MIC [3] was > 32 mg/L. For the same compound, the MIC [4] was > 32 mg/L, the MIC [5] was > 32 mg/L and the MIC [6] was > 32 mg/L. The MIC [7] was > 32 mg/L and the MIC [8] was > 32 mg/L.

With `CCCCCCCNC(=O)CCNC(=O)C(O)C(C)(C)CN` (stereo not given) the CC50 [1] was > 32 mg/L, the MIC [2] was > 32 mg/L and the MIC [3] was > 32 mg/L. For the same compound, the MIC [4] was > 32 mg/L, the MIC [5] was > 32 mg/L and the MIC [6] was > 32 mg/L. For the same compound, the MIC [7] was > 32 mg/L and the MIC [8] was > 32 mg/L.

For `CCCCCCCNC(=O)CCNC(=O)[C@H](O)C(C)(C)COP(=O)(O)O`, the CC50 [1] was > 32 mg/L, the MIC [2] was > 32 mg/L and the MIC [3] was > 32 mg/L. The MIC [4] was > 32 mg/L, the MIC [5] was > 32 mg/L and the MIC [6] was > 32 mg/L. The MIC [7] was > 32 mg/L and the MIC [8] was > 32 mg/L.

`CN(CCc1ccccc1)C(=O)CCNC(=O)[C@H](O)C(C)(C)CO` was tested, and the CC50 [1] was > 32 mg/L, the MIC [2] was > 32 mg/L and the MIC [3] was > 32 mg/L. For the same compound, the MIC [4] was > 32 mg/L, the MIC [5] was > 32 mg/L and the MIC [6] was > 32 mg/L. The MIC [7] was > 32 mg/L and the MIC [8] was > 32 mg/L.

`CCCCCCCNC(=O)CC(C)NC(=O)[C@H](O)C(C)(C)CO` (stereo not given in full) was tested, and the CC50 [1] was > 32 mg/L, the MIC [2] was > 32 mg/L and the MIC [3] was > 32 mg/L. The MIC [4] was > 32 mg/L, the MIC [5] was > 32 mg/L and the MIC [6] was > 32 mg/L. The MIC [7] was > 32 mg/L and the MIC [8] was > 32 mg/L.

For `CCCCCCCNC(=O)C(C)CNC(=O)[C@H](O)C(C)(C)CO` (stereo not given in full), the CC50 [1] was > 32 mg/L, the MIC [2] was > 32 mg/L and the MIC [3] was > 32 mg/L. For the same compound, the MIC [4] was > 32 mg/L, the MIC [5] was > 32 mg/L and the MIC [6] was > 32 mg/L. The MIC [7] was > 32 mg/L and the MIC [8] was > 32 mg/L.

For `CCCCCCCN(C)C(=O)CCNC(=O)[C@H](O)C(C)(C)CO`, the CC50 [1] was > 32 mg/L, the MIC [2] was > 32 mg/L and the MIC [3] was > 32 mg/L. For the same compound, the MIC [4] was > 32 mg/L, the MIC [5] was > 32 mg/L and the MIC [6] was > 32 mg/L. The MIC [7] was > 32 mg/L and the MIC [8] was > 32 mg/L.

For `CC(CNC(=O)[C@H](O)C(C)(C)CO)C(=O)NCCc1ccccc1` (stereo not given in full), the CC50 [1] was > 32 mg/L, the MIC [2] was > 32 mg/L and the MIC [3] was > 32 mg/L. The MIC [4] was > 32 mg/L, the MIC [5] was > 32 mg/L and the MIC [6] was > 32 mg/L. The MIC [7] was > 32 mg/L and the MIC [8] was > 32 mg/L.
